Broadly, the IC50 is the concentration that gives 50% inhibition. Broadly, the inhibition is the relative decrease from the control value, in per cent.

“And” between values parts separate entries of the source, which are not always exact repeats. Equal entries are not always repeated.

The values that follow come from patent US12617771B2, “Diphenylpyrazole compound, and preparation method therefor and application thereof” (NORTHWEST A&F UNIVERSITY, priority 2021, dated 2026).

What all share (type): biochemical
The target in experiment [1] is Plutella xylostella GSTs. As to the kind of experiment: Inhibition of total GSTs enzyme of Plutella xylostella (CDNB method). The method, then:
(§1) Experiment: About 50 mg of larvae/nymphs of nine major pests such as Plutella xylostella, Mythimna separata, Pyrausta nubilalis, Chilo suppressalis, Nilaparvata lugens, Spodoptera frugiperda, Helicoverpa armigera, Carposina sasakii, Spodoptera litura were taken, grounded in a mortar pre-cooled at −80° C., and then 1 mL of 100 mM sodium phosphate buffer (1 mM EDTA, pH 7.2) was added and fully homogenized. The homogenate was transferred to a 1.5 mL centrifuge tube at 4° C., and centrifuged at 14,000 g for 30 minutes, and the supernatant was transferred to a new centrifuge tube as the GSTs total enzyme. The protein concentrations of the above total enzymes were determined using the BCA method.
(§2) 100 μL of PBS buffer (100 mM, pH 7.2) containing 1 mM GSH was taken and placed in a 96-well plate, 5 μg of insect total GSTs enzymes and an appropriate concentration of compounds PXG1-PXG29 (29 compounds) of the present invention were added to each well, after uniformly mixing, and allowed to stand at 30° C. for 10 min. Then 100 μL of PBS buffer (100 mM, pH 7.2) containing 1 mM CDNB was added to each well. Immediately after mixing, the mixture was placed in a microplate reader to measure the absorbance at a wavelength of 340 nm (A 340) once every 1 min, the measurement was carried out continuously for 5 min, the light absorption values of each measuring point were recorded and the inhibition rate in vitro of the compounds with different concentrations against insects total GSTs enzymes were calculated. Each group of assays was repeated three times, and total GSTs enzymes inactivated at 100° C. for 5 min were used as negative controls, and GTX was used as positive controls. GraphPad Prism 5 software was used for analysis and calculation of IC50. Relative inhibition was calculated using the following formula:
(§3) [formula] • wherein, A340 is the change of A340 within 5 minutes for the control group, and A340t is the change of A340 within 5 minutes for the experimental group.

Experiment [2] deals with Carposina sasakii GSTs. As to the kind of experiment: Inhibition of total GSTs enzyme of Carposina sasakii (CDNB method). On the procedure: as §1, §2, §3
The target in experiment [3] is Spodoptera litura GSTs. In words: Inhibition of total GSTs enzyme of Spodoptera litura (CDNB method). On the procedure: as §1, §2, §3
In experiment [4] the target is Mythimna separata GSTs. In words: Inhibition of total GSTs enzyme of Mythimna separata (CDNB method). The method, then:
as §1, §2, §3

In experiment [5] the target is Pyrausta nubilalis GSTs. As to the kind of experiment: Inhibition of total GSTs enzyme of Pyrausta nubilalis (CDNB method). On the procedure:
as §1, §2, §3

For experiment [6], the target named is Chilo suppressalis GSTs. In words: Inhibition of total GSTs enzyme of Chilo suppressalis (CDNB method). On the procedure:
as §1, §2, §3

For experiment [7], the target named is Nilaparvata lugens GSTs. As to the kind of experiment: Inhibition of total GSTs enzyme of Nilaparvata lugens (CDNB method). On the procedure: as §1, §2, §3
Experiment [8] concerns the target Spodoptera frugiperda GSTs. In words: Inhibition of total GSTs enzyme of Spodoptera frugiperda (CDNB method). The method, then:
as §1, §2, §3

Experiment [9] concerns the target Helicoverpa armigera GSTs. In words: Inhibition of total GSTs enzyme of Helicoverpa armigera (CDNB method). On the procedure:
as §1, §2, §3

Experiment [10] has as its target PxGSTδ1 (Plutella xylostella, UniProt D7URW9). In words: Inhibition of PxGSTδ1 recombinant protein. The following applies: read-out: 100 μM Inhibition rate %. The method, then:
(§4) Experiment: 100 μL of PBS buffer (100 mM, pH 7.2) was taken and added to a 96-well plate, 1 μg of PxGSTs recombinant protein and an appropriate concentration of the compounds PXG1-PXG29 of the present invention were added to each well, after uniformly mixing, and allowed to stand at 30° C. for 10 min. Then 100 μL of PBS buffer (100 mM, pH 7.2) containing 1 mM CDNB and 1 mM GSH was successively added to each well. Immediately after mixing, the mixture was placed in a microplate reader to measure the absorbance at a wavelength of 340 nm (A340) once every 1 min, the measurement was continued for 5 min, the light absorption values of each measuring point were recorded and the inhibition rate in vitro of the compounds PXG1-PXG29 of the present invention with different concentrations against PxGSTs recombinant protein were calculated. Each group of assays was repeated three times, and PxGSTs recombinant protein inactivated at 100° C. for 5 min was used as negative control, and GTX was used as positive control. GraphPad Prism 5 software was used for analysis and calculation of IC50. Relative inhibition was calculated using the following formula:
(§5) [formula] • wherein, A340c is the change of A340 […] the control group, an A340t is the change of A340 within 5 minutes for the experimental group.

In experiment [11] the target is PxGSTσ1 (Plutella xylostella, UniProt Q6F436). As to the kind of experiment: Inhibition of PxGSTσ1 recombinant protein. To be noted: read-out: 100 μM Inhibition rate %. On the procedure: as §4, §5
The target of experiment [12] is PxGSTσ2 (Plutella xylostella, UniProt Q6F443). As to the kind of experiment: Inhibition of PxGSTσ2 recombinant protein. The following applies: read-out: 100 μM Inhibition rate %. The method, then:
as §4, §5

For experiment [13], the target named is PxGSTε3 (Plutella xylostella, UniProt O77409). In words: Inhibition of PxGSTε3 recombinant protein. The following applies: read-out: 100 μM Inhibition rate %. The method, then:
as §4, §5

PxGSTσ2, sequence (Q6F443 entry or part of it): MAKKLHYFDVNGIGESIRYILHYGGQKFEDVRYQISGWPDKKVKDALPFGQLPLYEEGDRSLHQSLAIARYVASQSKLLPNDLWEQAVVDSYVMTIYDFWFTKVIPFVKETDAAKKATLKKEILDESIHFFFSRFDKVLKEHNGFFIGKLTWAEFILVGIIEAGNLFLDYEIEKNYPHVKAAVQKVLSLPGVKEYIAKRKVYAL
PxGSTσ1, sequence (Q6F436 entry or part of it): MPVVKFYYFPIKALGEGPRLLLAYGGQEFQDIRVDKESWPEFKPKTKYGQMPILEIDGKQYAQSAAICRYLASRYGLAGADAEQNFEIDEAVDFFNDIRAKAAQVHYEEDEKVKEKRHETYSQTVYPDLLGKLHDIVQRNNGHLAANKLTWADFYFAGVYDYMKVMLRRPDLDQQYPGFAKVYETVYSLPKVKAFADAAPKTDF
PxGSTε3, sequence (O77409 entry or part of it): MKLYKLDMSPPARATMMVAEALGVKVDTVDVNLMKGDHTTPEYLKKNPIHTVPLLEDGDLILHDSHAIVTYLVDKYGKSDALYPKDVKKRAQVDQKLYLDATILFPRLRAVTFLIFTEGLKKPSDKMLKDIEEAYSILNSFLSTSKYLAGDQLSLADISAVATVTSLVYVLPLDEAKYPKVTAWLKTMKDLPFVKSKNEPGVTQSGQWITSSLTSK
PxGSTδ1, sequence (D7URW9 entry or part of it): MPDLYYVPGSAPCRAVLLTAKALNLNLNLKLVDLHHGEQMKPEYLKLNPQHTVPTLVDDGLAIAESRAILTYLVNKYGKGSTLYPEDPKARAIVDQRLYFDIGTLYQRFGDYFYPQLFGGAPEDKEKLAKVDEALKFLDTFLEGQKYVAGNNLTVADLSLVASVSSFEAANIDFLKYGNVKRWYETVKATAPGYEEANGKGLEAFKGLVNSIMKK

As for `CC1CCC2(CC1)NC(=O)N(NC(=O)c1cc(-c3ccccc3)nn1-c1ccccc1)C2=O` (stereo not drawn) [PXG16, N-{8-methyl-2,4-dioxo-1,3-diazaspiro[4.5]dec-3-yl}-1,3-diphenyl-1H-pyrazol-5-yl-carboxamide], the half-inhibitory concentration (IC50) in experiment [1], in [2], in [3], in [4], in experiment [5] and in [6] was greater than 100 µM in each case. Moreover, the concentration for half-maximal inhibition (IC50) in experiment [7], in experiment [8] and in experiment [9] was greater than 100 µM each time. The “100 μM Inhibition rate %” value in experiment [1] was 8.64%; in experiment [2], 6.98%; in experiment [3] it was −0.15%; in experiment [4] it was 10.50%; in experiment [5], 0.41%; in experiment [6], 10.53%. Moreover, the results for the “100 μM Inhibition rate %” value in experiment [7], in experiment [8] and in [9] were −1.00%, −1.72% and 2.28%, respectively. In addition, the inhibition at 100 µM is 5.35% in experiment [10], 70.5% in [11], 39.3% in [12] and 4.12% in experiment [13].
Regarding `N#Cc1ccccc1OCC(=O)NNC(=O)c1cc(-c2ccccc2)nn1-c1ccccc1` [PXG23, 2-(2-cyanophenoxy)-N′-(1,3-diphenyl-1H-pyrazol-5-yl-carbonyl)acetohydrazide], the IC50 in [1], in experiment [2], in experiment [3], in experiment [4], in experiment [5] and in experiment [6] was greater than 100 µM in each case. Further, the 50% inhibitory concentration (IC50) in experiment [7], in [8] and in [9] was greater than 100 µM throughout. The “100 μM Inhibition rate %” value in [1] worked out at 26.35%; in experiment [2], 19.76%; in experiment [3], 12.89%; in [4], 22.92%; in experiment [5], 15.55%; in experiment [6], 22.83%. Further, the “100 μM Inhibition rate %” value in [7] was determined as 24.74%; in [8], 22.33%; in experiment [9] it was 0.43%. Besides, the inhibition at 100 µM worked out at 77.7% in experiment [10], 35.9% in experiment [11], 26.9% in [12] and 6.04% in experiment [13].
On to `CN(C)S(=O)(=O)c1cccc(C(=O)NNC(=O)c2cc(-c3ccccc3)nn2-c2ccccc2)c1` [PXG9, 3-[N′-(1,3-diphenyl-1H-pyrazol-5-yl-carbonyl) hydrazinocarbonyl]-N,N-dimethylphenyl-1-sulfonamide], for which the IC50 in experiment [1], in experiment [2], in experiment [3], in experiment [4], in [5] and in [6] was greater than 100 µM throughout. Also, the half-maximal inhibitory concentration (IC50) in experiment [7], in [8] and in experiment [9] was greater than 100 µM throughout. Moreover, the “100 μM Inhibition rate %” value in experiment [1] is 3.94%; in [2] it was 12.55%; in experiment [3] it was 12.58%; in [4], 2.72%; in experiment [5], 5.71%; in [6], 34.79%. Also, the “100 μM Inhibition rate %” value in experiment [7] was −10.48%; in experiment [8], 5.56%; in experiment [9], 5.25%. Moreover, the inhibition at 100 µM in experiment [10] is 30.4%; in [11], 28.6%; in experiment [12] it was 31.4%; in experiment [13], -3.88%.
With `COc1ccccc1OCC(=O)NNC(=O)c1cc(-c2ccccc2)nn1-c1ccccc1` [PXG18, N′-(1,3-diphenyl-1H-pyrazol-5-yl-carbonyl)-2-(2-methoxyphenoxy)acetohydrazide], the half-inhibitory concentration (IC50) in [1], in experiment [2], in [3], in experiment [4], in experiment [5] and in [6] was greater than 100 µM throughout. For the same compound, the IC50 in experiment [7], in experiment [8] and in [9] was greater than 100 µM throughout. In addition, the “100 μM Inhibition rate %” value in experiment [1] was 32.94%; in [2] it was 13.69%; in experiment [3], 7.95%; in experiment [4], −2.16%; in experiment [5] it was 23.84%; in experiment [6] it was 23.00%. The “100 μM Inhibition rate %” value in experiment [7] was 45.31%; in experiment [8], 28.67%; in experiment [9], −3.02%. Moreover, the inhibition at 100 µM was 82% in [10], 31.7% in experiment [11], 13.5% in experiment [12] and -2.47% in experiment [13].
`CCCCCCSC[C@H](NC(=O)CC[C@H](N)C(=O)O)C(=O)NCC(=O)O` [GTX, S-Hexylglutathione, reference compound]: the concentration for half-maximal inhibition (IC50) in [1] was 12.9 µM; in [2] it was 6.87 µM; in experiment [3] it was 15.2 µM; in experiment [4], 16.3 µM; in experiment [5] it was 23.5 µM; in experiment [9], 14.4 µM and 14.1 µM. Besides, the “100 μM Inhibition rate %” value stood at 73.72% in [1]; 95.39% in experiment [2]; 85.61% in experiment [3]; 87.20% in experiment [4]; 86.35% in [5]; 99.97% in experiment [6]. In addition, the “100 μM Inhibition rate %” value in experiment [7] was found to be 95.14%; in [8], 95.20%; in [9] it was 96.30%. Further, the inhibition at 100 µM was 66.5% in experiment [10], 67.3% in experiment [11], 84.8% in experiment [12] and 50.7% in [13].
Regarding `O=C(COc1ccccc1)NNC(=O)c1cc(-c2ccccc2)nn1-c1ccccc1` [PXG5, N′-(1,3-diphenyl-1H-pyrazol-5-yl-carbonyl)-2-phenoxyacetohydrazide], the IC50 in [1], in [2], in experiment [3], in experiment [4], in experiment [5] and in experiment [6] was greater than 100 µM in each case. The concentration for half-maximal inhibition (IC50) in experiment [7], in experiment [8] and in experiment [9] was greater than 100 µM throughout. In addition, the “100 μM Inhibition rate %” value was found to be 11.58% in experiment [1]; 23.22% in experiment [2]; 37.80% in [3]; 47.24% in experiment [4]; 14.08% in experiment [5]; 28.17% in experiment [6]. Besides, the entries for the “100 μM Inhibition rate %” value in experiment [7], in experiment [8] and in experiment [9] were 23.90%, 31.42% and 9.57%, respectively. Also, the inhibition at 100 µM was 81.7% in [10], 35.6% in experiment [11], 24.5% in experiment [12] and -2.97% in experiment [13].
